Assay results reported in PubChem BioAssay AID651598 (Sanford-Burnham Center for Chemical Genomics, 2012).
Calls of active or inactive are those of the source.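 How the source made its calls: active means CXCR6 IC50 under 10 µM and IC50 at the unrelated APJ receptor at least five times higher; inactive means the rest.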

Assays:
[1] = target: Apelin receptor (Homo sapiens) (UniProt P35414); test: apelin receptor (APJ) antagonists, SAR follow-up, counter-screen for CXCR6 antagonist project, cell-based, beta-arrestin, DiscoveRx, panel, CHO-K1 (AID 651598); conditions: CHO-K1 PathHunter beta-arrestin luminescence, antagonist mode; APJ; mean of runs
[2] = target: C-X-C chemokine receptor type 6 (Homo sapiens) (UniProt O00574); test: as above; conditions: CHO-K1 PathHunter beta-arrestin luminescence, antagonist mode; CXCR6; mean of runs
Chain of C-X-C chemokine receptor type 6 (Homo sapiens) (O00574 whole entry, looked up): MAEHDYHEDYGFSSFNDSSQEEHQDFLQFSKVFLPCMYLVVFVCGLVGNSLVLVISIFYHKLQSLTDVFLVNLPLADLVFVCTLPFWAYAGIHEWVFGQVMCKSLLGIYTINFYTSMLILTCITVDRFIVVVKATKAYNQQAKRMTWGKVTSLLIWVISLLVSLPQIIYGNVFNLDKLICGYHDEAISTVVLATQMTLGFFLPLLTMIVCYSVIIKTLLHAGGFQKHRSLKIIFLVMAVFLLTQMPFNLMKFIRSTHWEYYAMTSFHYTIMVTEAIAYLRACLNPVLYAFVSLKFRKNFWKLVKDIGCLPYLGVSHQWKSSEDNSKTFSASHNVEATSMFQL

Chain of Apelin receptor (Homo sapiens) (P35414 whole entry, looked up): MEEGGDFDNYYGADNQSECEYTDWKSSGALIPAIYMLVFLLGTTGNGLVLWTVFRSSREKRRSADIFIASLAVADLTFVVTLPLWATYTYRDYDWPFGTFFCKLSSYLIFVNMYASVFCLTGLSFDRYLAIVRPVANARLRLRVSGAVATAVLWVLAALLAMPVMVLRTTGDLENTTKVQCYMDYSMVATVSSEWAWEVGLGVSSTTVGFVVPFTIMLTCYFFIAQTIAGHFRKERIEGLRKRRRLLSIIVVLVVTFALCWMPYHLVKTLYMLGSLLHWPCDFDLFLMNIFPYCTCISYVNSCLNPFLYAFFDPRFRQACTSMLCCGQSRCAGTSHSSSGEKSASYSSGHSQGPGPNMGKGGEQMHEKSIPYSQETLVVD

IC50 [1] | IC50 [2] | Compound
> 80 µM (inactive) | – | COc1cc(C(=O)NC2CC3CCCC(C2)N3CC(=O)Nc2ccccc2)cc(OC)c1OC (centres undefined)
> 80 µM (inactive) | > 80 µM (inactive) | COc1cc(C(=O)NC2CCN(CC(=O)Nc3ccccc3)CC2)cc(OC)c1OC
> 80 µM (inactive) | – | COc1cc(C(=O)NC2CC3CCC(C2)N3CC(=O)Nc2ccccc2)cc(OC)c1OC (centres undefined)
